Values joined by “and” are separate entries in the source; they are usually repeats but may differ in a detail not shown here. Identical values can stand only once. Toxic doses and inconclusive results are not listed.
System: BDF1 mice, P388 leukemia ip, median survival T/C
Experiment: NCI In Vivo Anticancer Drug Screen. Data for tumor model P388 Leukemia (intraperitoneal) in B6D2F1 (BDF1) mice
Conditions: endpoint: median survival time, higher = longer survival
Procedure, shortened: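 Each value expresses how treatment altered survival: treated-mouse outcome over vehicle-mouse outcome, both groups bearing the transplanted tumour.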

[1] = dose: 50.0 mg/kg/injection, schedule: Q01DX009 (ip), vehicle: saline
[2] = dose: 12.5 mg/kg/injection, schedule: Q01DX009 (ip), vehicle: saline with Tween-80
[3] = dose: 25.0 mg/kg/injection, schedule: Q01DX009 (ip), vehicle: saline with Tween-80
[4] = dose: 50.0 mg/kg/injection, schedule: Q01DX009 (ip), vehicle: saline with Tween-80
[5] = dose: 100.0 mg/kg/injection, schedule: Q01DX009 (ip), vehicle: saline with Tween-80
[6] = dose: 200.0 mg/kg/injection, schedule: Q01DX009 (ip), vehicle: saline with Tween-80
[7] = dose: 400.0 mg/kg/injection, schedule: Q01DX009 (ip), vehicle: saline with Tween-80
[8] = dose: 50.0 mg/kg/injection, schedule: Q04DX003 (ip), vehicle: saline
[9] = dose: 100.0 mg/kg/injection, schedule: Q01DX009 (ip), vehicle: saline
[10] = dose: 100.0 mg/kg/injection, schedule: Q04DX003 (ip), vehicle: saline
[11] = dose: 200.0 mg/kg/injection, schedule: Q04DX003 (ip), vehicle: saline
[12] = dose: 100.0 mg/kg/injection, schedule: Q04DX003 (ip), vehicle: saline with Tween-80
[13] = dose: 400.0 mg/kg/injection, schedule: Q04DX003 (ip), vehicle: saline with Tween-80
[14] = dose: 600.0 mg/kg/injection, schedule: Q04DX003 (ip), vehicle: saline with Tween-80
[15] = dose: 50.0 mg/kg/injection, schedule: Q04DX003 (ip), vehicle: saline with Tween-80
[16] = dose: 400.0 mg/kg/injection, schedule: Q04DX003 (ip), vehicle: saline

SMILES: C=CCOCCN1CCN(CCCN2c3ccccc3Sc3ccc(C(F)(F)F)cc32)CC1
- T/C (dose: 5.0 mg/kg/injection, schedule: Q04DX003 (ip), vehicle: saline): 104 % of control
- T/C (dose: 10.0 mg/kg/injection, schedule: Q04DX003 (ip), vehicle: saline): 121 % of control

SMILES: CC[P+](CC)(CC)CCCCI
- T/C (dose: 6.25 mg/kg/injection, schedule: Q01DX009 (ip), vehicle: saline): 120 % of control
- T/C (dose: 12.5 mg/kg/injection, schedule: Q01DX009 (ip), vehicle: saline): 123 % of control
- T/C (dose: 25.0 mg/kg/injection, schedule: Q01DX009 (ip), vehicle: saline): 108 % of control and 120 % of control
- T/C [1]: 99 % of control

SMILES: COc1ccc(NC(=S)Nc2ccccn2)cc1
- T/C [2]: 100 % of control
- T/C [3]: 100 % of control
- T/C [4]: 104 % of control
- T/C (dose: 100.0 mg/kg/injection, schedule: Q01DX001 (ip), vehicle: saline): 103 % of control
- T/C [5]: 100 % of control
- T/C (dose: 200.0 mg/kg/injection, schedule: Q01DX001 (ip), vehicle: saline): 111 % of control
- T/C [6]: 96 % of control
- T/C (dose: 400.0 mg/kg/injection, schedule: Q01DX001 (ip), vehicle: saline): 107 % of control
- T/C [7]: 104 % of control

SMILES: O=C1Oc2ccccc2C1=O
- T/C [1]: 100 % of control
- T/C [8]: 100 % of control
- T/C [9]: 100 % of control
- T/C [10]: 100 % of control
- T/C [11]: 100 % of control

SMILES: O=C(O/N=C1\C2CCC(C2)C1Cl)c1ccc([N+](=O)[O-])cc1 (configuration not stated)
- T/C (dose: 12.5 mg/kg/injection, schedule: Q04DX003 (ip), vehicle: saline): 100 % of control
- T/C (dose: 25.0 mg/kg/injection, schedule: Q04DX003 (ip), vehicle: saline): 96 % of control
- T/C [8]: 103 % of control

SMILES: NC(N)=NC(N)=Nc1ccc(S(=O)(=O)O)cc1
- T/C [5]: 103 % of control
- T/C [6]: 97 % of control
- T/C [7]: 94 % of control

SMILES: CN(C)C1C(=O)C(C(N)=O)=C(O)C2(O)C(=O)C3=C(O)c4c(O)cccc4C(C)(O)C3C(O)C12 (configuration not stated)
- T/C (dose: 50.0 mg/kg/injection, schedule: Q01DX010 (oral), vehicle: water): 100 % of control
- T/C (dose: 100.0 mg/kg/injection, schedule: Q01DX010 (oral), vehicle: water): 109 % of control
- T/C (dose: 200.0 mg/kg/injection, schedule: Q01DX010 (oral), vehicle: water): 100 % of control

SMILES: BrC(Br)c1ccc2ccccc2n1
- T/C (dose: 100.0 mg/kg/injection, schedule: Q01DX009 (ip), vehicle: Klucel (hydroxypropylcellulose) (HPC)): 108 % of control
- T/C (dose: 100.0 mg/kg/injection, schedule: Q04DX003 (ip), vehicle: Klucel (hydroxypropylcellulose) (HPC)): 100 % of control
- T/C (dose: 200.0 mg/kg/injection, schedule: Q01DX009 (ip), vehicle: Klucel (hydroxypropylcellulose) (HPC)): 108 % of control
- T/C (dose: 200.0 mg/kg/injection, schedule: Q04DX003 (ip), vehicle: Klucel (hydroxypropylcellulose) (HPC)): 91 % of control
- T/C (dose: 400.0 mg/kg/injection, schedule: Q01DX009 (ip), vehicle: Klucel (hydroxypropylcellulose) (HPC)): 95 % of control
- T/C (dose: 400.0 mg/kg/injection, schedule: Q04DX003 (ip), vehicle: Klucel (hydroxypropylcellulose) (HPC)): 91 % of control

SMILES: CCOC(=O)C(=O)N(Cc1cnc2nc(N)[nH]c(=O)c2n1)c1ccc(C(=O)NC(CCC(=O)O)C(=O)O)cc1 (configuration not stated)
- T/C [8]: 96 % of control
- T/C [10]: 103 % of control
- T/C [11]: 116 % of control

SMILES: ClC1(Cl)Cc2ccccc21
- T/C [12]: 109 % of control
- T/C (dose: 266.0 mg/kg/injection, schedule: Q04DX003 (ip), vehicle: saline with Tween-80): 108 % of control
- T/C [13]: 108 % of control
- T/C [14]: 120 % of control

SMILES: COc1cccc2c1C(=O)c1c(O)c3c(c(O)c1C2=O)C[C@@](O)(C(O)O)C[C@@H]3OC1CC(N)C(O)C(C)O1 (some centres not stated)
- T/C (dose: 4.0 mg/kg/injection, schedule: Q01DX009 (ip), vehicle: water): 169 % of control
- T/C (dose: 8.0 mg/kg/injection, schedule: Q01DX009 (ip), vehicle: water): 87 % of control
- T/C (dose: 16.0 mg/kg/injection, schedule: Q01DX009 (ip), vehicle: water): 87 % of control

SMILES: ClCC[N+]12CC[N+](CCCl)(CC1)C2
- T/C [2]: 103 % of control
- T/C [3]: 118 % of control and 116 % of control
- T/C (dose: 25.0 mg/kg/injection, schedule: Q04DX003 (ip), vehicle: saline with Tween-80): 108 % of control
- T/C [15]: 93 % of control and 108 % of control
- T/C [8]: 103 % of control
- T/C [5]: 150 % of control and 206 % of control and 168 % of control
- T/C [12]: 171 % of control
- T/C [10]: 122 % of control
- T/C [11]: 165 % of control
- T/C (dose: 264.0 mg/kg/injection, schedule: Q04DX003 (ip), vehicle: saline with Tween-80): 200 % of control
- T/C [7]: 112 % of control
- T/C (dose: 400.0 mg/kg/injection, schedule: Q01DX009 (ip), vehicle: saline): 178 % of control
- T/C [13]: 96 % of control
- T/C [16]: 244 % of control
- T/C [14]: 95 % of control

SMILES: CC1(C(=O)O)CCC2(C)CCC3(C)C(=CC(=O)C4C5(C)CCC(OC6OC(C(=O)O)C(O)C(O)C6OC6OC(C(=O)O)C(O)C(O)C6O)C(C)(C)C5CCC43C)C2C1 (configuration not stated)
- T/C (dose: 100.0 mg/kg/injection, schedule: Q04DX003 (ip), vehicle: alcohol): 104 % of control
- T/C (dose: 200.0 mg/kg/injection, schedule: Q04DX003 (ip), vehicle: alcohol): 104 % of control
- T/C (dose: 400.0 mg/kg/injection, schedule: Q04DX003 (ip), vehicle: alcohol): 90 % of control

SMILES: Nc1nc(C=O)c(CCc2ccccc2)c(=O)[nH]1
- T/C [15]: 113 % of control

SMILES: O=C1/C(=C\c2ccccc2)OC(c2ccccc2)O/C1=C/c1ccccc1 (configuration not stated)
- T/C [1]: 108 % of control
- T/C [9]: 95 % of control
- T/C [10]: 120 % of control
- T/C (dose: 200.0 mg/kg/injection, schedule: Q01DX009 (ip), vehicle: saline): 97 % of control
- T/C [11]: 117 % of control
- T/C [16]: 114 % of control

SMILES: COc1ccc(OC)c(/C=C/C(=O)NCC(O)CO)c1 (configuration not stated)
- T/C [4]: 95 % of control
- T/C [5]: 100 % of control

Reference: PubChem BioAssay AID328 (DTP/NCI, 2004)
